Source: article PMC10424186 (Journal of Medicinal Chemistry, 2023)
Where two headings read alike, the source gives them in different places.

Tests used:
A549 cells [1] = experiment: Replication stress: 53BP1 bodies and micronuclei (immunofluorescence/DAPI); assay type: cell-based; conditions: 1.0 μM, 24 h
Description: (§1) (a) U2OS bone osteosarcoma, (b) A549 lung adenocarcinoma, and (c) PC3 prostate adenocarcinoma cells were treated with the indicated doses of 19i and 19j (1.0, 5.0, 10, 50, and 100 μM) for 72 h and then tested for viability using the 3-(4,5-dimethylthiazol-2-yl)-5-(3-carboxymethoxyphenyl)-2-(4-sulfophenyl)-2H-tetrazolium (MTS) assay. A549 cells were treated with 19i or 19j (1.0 μM) for 24 h, then stained with (d) propidium iodide and analyzed by FACS or (e) DAPI staining for nuclei (left) and anti-53BP1 (for 53BP1 bodies, right). Cells were counted for 53BP1 bodies (f) and micronuclei (g). Data represent mean ± SEM from three (a–d) or four (f–g) independent replicates. For 53BP1 bodies, a minimum of 300 cells were counted per sample. For micronuclei, a minimum of 500 cells were counted per sample. Statistical analyses used one-way ANOVA with Tukey’s post hoc test [with p-value ≤ 0.01 (**)].
(§2) Because JMJD5 RNA interference has been associated with disturbances in the cell cycle,[1],[2],[81],[82] we measured phase distribution by flow cytometry in A549 cells (Figure 6d). Treatment with 19i or 19j for 24 h caused a reduction in G1-phase cells, with a corresponding increase in S- and G2/M-phase cells. […] We have recently reported that JMJD5 loss of function induces replication stress,[14] which is defined as a perturbation that slows or stalls DNA replication.[83] Unresolved replication stress can be measured by an increase in G1-phase 53BP1 “bodies” and micronuclei (Figure 6e), which are extranuclear DNA bodies that result from DNA cleavage and genome instability following replication stress.
Cells on coverslips were pre-extracted on ice for 5 min using a buffer containing 20 mM NaCl, 3 mM MgCl2, 300 mM sucrose, 10 mM PIPES, and 0.5%v/v Triton X-100 and fixed using 4%v/v paraformaldehyde (PFA) in PBS for 15 min at ambient temperature. Cells were then permeabilized in 0.1%v/v Triton X-100 in PBS at ambient temperature for 10 min and blocked in 1%w/v bovine serum albumin (BSA) in PBS for 1 h at ambient temperature. Coverslips were incubated with anti-53BP1 antibody (Bio-Techne, NB100-904V) diluted in 1%w/v BSA in PBS at ambient temperature for 1 h in the dark. Coverslips were then washed three times with cold 1%w/v BSA in PBS following incubation for 1 h with secondary antibodies (anti-mouse 555 nm A31570 or anti-rabbit 488 nm A11070, Thermo Fisher). The coverslips were washed three times with cold PBS and incubated for 10 min with 4′,6-diamidino-2-phenylindole (DAPI) (Invitrogen) to stain for nuclei. Prolong Gold Antifade Reagent (Cell Signaling Technology) was used to mount the coverslips onto microscope slides. Images were taken using 40× objective on a Leica DM6000 fluorescent microscope and processed with ImageJ.

[2] = test system: PC3 prostate adenocarcinoma cells; experiment: MTS cell viability assay, PC3; assay type: cell-based; conditions: 1.0–100 μM, 72 h
Source text: (§3) A biochemical readout of JMJD5 arginine residue hydroxylase activity in cells is not available; we thus focused our studies on biological readouts previously linked to JMJD5 function in order to investigate cellular responses resulting from JMJD5 inhibitor treatment. JMJD5 loss of function by RNA interference is reported to affect tumor cell proliferation and viability;[16],[18],[20],[21] we therefore studied the effects of 19i and 19j on the growth of three different tumor cell lines.
as §1, with “Data represent mean ± SEM from three (a–d) or four (f–g) independent replicates.” left out, “Statistical analyses used one-way ANOVA with Tukey’s post hoc test [with p-value ≤ 0.01 (**)].” left out
(§4) Cell proliferation/viability was measured using MTS (CellTiter 96 Aqueous One 667 Solution Cell Proliferation Assay, Promega) and CyQUANT (Thermo Fisher) assays. […]

[3] = test system: A549 lung adenocarcinoma cells; experiment: MTS cell viability assay, A549; assay type: cell-based; conditions: Homo sapiens, 72 h, read-out: half-maximum cytotoxicity concentration (CC50)
Source text: as §3
as §1, with “Data represent mean ± SEM from three (a–d) or four (f–g) independent replicates.” left out, “Statistical analyses used one-way ANOVA with Tukey’s post hoc test [with p-value ≤ 0.01 (**)].” left out
as §4

[4] = test system: U2OS bone osteosarcoma cells; experiment: CyQuant viability assay (DNA content), U2OS; assay type: cell-based; conditions: 1.0–100 μM, 72 h
Description: Cell proliferation/viability was measured using MTS (CellTiter 96 Aqueous One 667 Solution Cell Proliferation Assay, Promega) and CyQUANT (Thermo Fisher) assays. CellTiter 96 Aqueous MTS reagent (Promega) and phenazine methosulfate (Sigma-Aldrich) were dissolved in phosphate-buffered saline (PBS) according to the manufacturer’s protocol. The MTS working reagent was made according to the manufacturer’s protocol and added to each well containing the cells. Plates were incubated for 1 h at 37 °C under 5% CO2, protected from light, and then the absorbance was measured at 490 nm using an EnSpire Multimode plate reader (PerkinElmer). For the cyQUANT assay, the reagents were prepared according to the manufacturer’s protocol and added to the cells. The cells were incubated for 1 h at 37 °C under 5% CO2, protected from light; fluorescence was then measured with excitation at ∼485 nm and emission detection at ∼530 nm using an EnSpire Multimode plate reader.
viability of U2OS bone osteosarcoma cells.
derivatives 19i and 19j (1.0, 5.0, 10, 50, 100 μM) for 72 h and then tested for viability using the CyQuant assay,
which measures DNA content. Data represent mean ± SEM from independent experiments.
(1 picture or pasted object on this page, not shown here)

A549 cells [5] = experiment: Cell-cycle analysis (propidium iodide, FACS); assay type: cell-based; conditions: 1.0 μM, 24 h
Description: as §1, §2
Cell-cycle analyses were performed using A549 cells fixed in ice-cold 70%v/v ethanol. Cells were incubated with 100 μg/mL RNase A (Thermo Fisher Scientific), stained with 20 μg/mL propidium iodide, and then analyzed using Beckman Coulter CytoFLEX S. Representative FACS profiles were generated using Beckman CytExpert software.

[6] = test system: U2OS bone osteosarcoma cells; experiment: MTS cell viability assay, U2OS; assay type: cell-based; conditions: for CC50: Homo sapiens
Source text: as §3
as §1, with “(**)]. […]” for “(**)].”
Cell proliferation/viability was measured using MTS (CellTiter 96 Aqueous One 667 Solution Cell Proliferation Assay, Promega) and CyQUANT (Thermo Fisher) assays. […] Plates were incubated for 1 h at 37 °C under 5% CO2, protected from light, and then the absorbance was measured at 490 nm using an EnSpire Multimode plate reader (PerkinElmer). […] The cells were incubated for 1 h at 37 °C under 5% CO2, protected from light; fluorescence was then measured with excitation at ∼485 nm and emission detection at ∼530 nm using an EnSpire Multimode plate reader.

AspH = biological target: T1, AspH (Homo sapiens, UniProt Q12797); experiment: SPE-MS AspH inhibition assay (hFX-CP101–119 hydroxylation); assay type: biochemical; conditions: Table 2; His6-AspH315–758 0.05 μM, 1.0 μM hFX-CP101–119; n = 2, mean ± SD
T1 construct: N-terminally His6-tagged AspH315–758; made in house; host or cells: Escherichia coli
T1 sequence (Q12797 315-758): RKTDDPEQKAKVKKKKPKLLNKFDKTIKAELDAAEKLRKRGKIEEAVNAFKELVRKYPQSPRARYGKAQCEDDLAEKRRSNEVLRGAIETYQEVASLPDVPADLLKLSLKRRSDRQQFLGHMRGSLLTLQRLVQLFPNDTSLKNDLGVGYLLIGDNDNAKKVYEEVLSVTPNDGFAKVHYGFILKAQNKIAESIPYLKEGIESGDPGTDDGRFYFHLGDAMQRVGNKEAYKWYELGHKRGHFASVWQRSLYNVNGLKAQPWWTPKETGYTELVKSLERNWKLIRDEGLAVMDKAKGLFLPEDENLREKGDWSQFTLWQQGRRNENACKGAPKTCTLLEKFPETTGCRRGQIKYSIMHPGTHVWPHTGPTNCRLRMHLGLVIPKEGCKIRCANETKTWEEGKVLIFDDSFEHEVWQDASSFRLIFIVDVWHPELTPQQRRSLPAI
Description: (§5) H3_1-15K9me3, histone 3 (H3), residues 1–15 with K9 of H3-bearing three methyl groups at the N^ε-position, K4 of H3 substituted by an alanine residue, and K14 of H3 by an isoleucine residue,[73] for KDM4E; and RPL27A, residues 31–49, for RIOX2 (Mina53).[44]
(§6) Cosubstrate/cofactor stock solutions [L-ascorbic acid/LAA: 50 mM in MQ-grade water; 2-oxoglutarate/2OG: 10 mM in MQ-grade water; ammonium iron(II) sulfate hexahydrate/FAS/(NH4)2Fe(SO4)2·6H2O: 400 mM in 20 mM HCl diluted to 1 mM in MQ-grade water] were freshly prepared from commercial solids (Sigma-Aldrich) on the day the assays were performed. The JMJD5,[42] PHD2,[70] FIH,[70] KDM4E,[72],[73] RIOX2,[44] and AspH[45] […] For JMJD5, PHD2, FIH, RIOX2, and AspH, substrate hydroxylation was monitored (+16 Da mass shift), while for the KDM4E substrate, demethylation was monitored (−14 Da mass shift) by SPE-MS.

PHD2 = biological target: T2, PHD2 (Homo sapiens, UniProt Q9GZT9); experiment: SPE-MS PHD2 inhibition assay (HIF-1α CODD hydroxylation); assay type: biochemical; conditions: Table 2; PHD2 181–426 […], 5.0 μM HIF-1α CODD; n = 2, mean ± SD
T2 construct: His6-PHD2_181–426; made in house; host or cells: Escherichia coli
T2 sequence (Q9GZT9 181-426): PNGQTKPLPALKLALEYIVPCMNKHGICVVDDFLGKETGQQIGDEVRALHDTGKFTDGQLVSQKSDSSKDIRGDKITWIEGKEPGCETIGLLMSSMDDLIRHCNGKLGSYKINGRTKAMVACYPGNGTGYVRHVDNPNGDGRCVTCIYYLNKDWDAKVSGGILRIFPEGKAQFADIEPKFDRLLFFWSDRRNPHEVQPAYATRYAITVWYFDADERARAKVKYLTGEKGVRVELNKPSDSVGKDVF
Description: as §5, §6

KDM4E = biological target: T3, KDM4E (Homo sapiens, UniProt B2RXH2); experiment: SPE-MS KDM4E inhibition assay (demethylation of H3 1–15 K9me3); assay type: biochemical; conditions: Table 2, 10.0 μM H3 1–15 K9me3, n = 2, mean ± SD
T3 construct: made in house; host or cells: Escherichia coli
T3 sequence (B2RXH2 1-506): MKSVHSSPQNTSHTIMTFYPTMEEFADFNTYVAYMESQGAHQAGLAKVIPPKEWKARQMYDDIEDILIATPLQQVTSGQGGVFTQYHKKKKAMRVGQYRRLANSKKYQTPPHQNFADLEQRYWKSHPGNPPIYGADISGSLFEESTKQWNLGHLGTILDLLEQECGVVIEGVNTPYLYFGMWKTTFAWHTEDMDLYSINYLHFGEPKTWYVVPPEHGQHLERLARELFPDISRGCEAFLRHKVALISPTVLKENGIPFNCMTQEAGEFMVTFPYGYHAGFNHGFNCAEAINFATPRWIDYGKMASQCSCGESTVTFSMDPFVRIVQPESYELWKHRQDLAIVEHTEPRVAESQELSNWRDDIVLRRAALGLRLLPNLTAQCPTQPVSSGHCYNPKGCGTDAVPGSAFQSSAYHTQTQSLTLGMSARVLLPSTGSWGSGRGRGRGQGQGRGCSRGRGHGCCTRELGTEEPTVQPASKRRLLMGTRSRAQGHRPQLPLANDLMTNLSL
Description: as §5, §6

RIOX2 = biological target: T4, RIOX2 (Homo sapiens, UniProt Q8IUF8); experiment: SPE-MS RIOX2 inhibition assay (RPL27A31–49 hydroxylation); assay type: biochemical; conditions: Table 2; His6-RIOX2 26–465 […], 5.0 μM RPL27A31–49; n = 2, mean ± SD
T4 construct: N-terminally His6-tagged RIOX2_26–465; made in house; host or cells: Escherichia coli
T4 sequence (Q8IUF8 26-465): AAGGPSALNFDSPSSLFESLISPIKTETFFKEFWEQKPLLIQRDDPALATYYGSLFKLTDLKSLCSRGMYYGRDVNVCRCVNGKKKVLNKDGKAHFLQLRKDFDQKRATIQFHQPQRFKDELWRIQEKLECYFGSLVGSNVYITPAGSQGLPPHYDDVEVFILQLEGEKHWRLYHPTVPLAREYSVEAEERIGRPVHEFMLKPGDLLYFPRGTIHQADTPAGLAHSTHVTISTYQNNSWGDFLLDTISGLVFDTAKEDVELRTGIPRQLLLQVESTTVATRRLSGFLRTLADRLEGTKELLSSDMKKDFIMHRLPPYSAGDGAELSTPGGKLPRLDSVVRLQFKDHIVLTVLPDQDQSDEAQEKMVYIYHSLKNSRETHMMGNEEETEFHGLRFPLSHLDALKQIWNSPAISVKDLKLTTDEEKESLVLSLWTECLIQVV
Description: Cosubstrate/cofactor stock solutions [L-ascorbic acid/LAA: 50 mM in MQ-grade water; 2-oxoglutarate/2OG: 10 mM in MQ-grade water; ammonium iron(II) sulfate hexahydrate/FAS/(NH4)2Fe(SO4)2·6H2O: 400 mM in 20 mM HCl diluted to 1 mM in MQ-grade water] were freshly prepared from commercial solids (Sigma-Aldrich) on the day the assays were performed. […] For JMJD5, PHD2, FIH, RIOX2, and AspH, substrate hydroxylation was monitored (+16 Da mass shift), while for the KDM4E substrate, demethylation was monitored (−14 Da mass shift) by SPE-MS.

FIH = biological target: T5, FIH (Homo sapiens, UniProt Q9NWT6); experiment: SPE-MS FIH inhibition assay (HIF-1α CAD hydroxylation); assay type: biochemical; conditions: Table 2; His6-FIH 0.15 μM, 5.0 μM HIF-1α CAD; n = 2, mean ± SD
T5 construct: made in house; host or cells: Escherichia coli
T5 sequence (Q9NWT6 whole entry): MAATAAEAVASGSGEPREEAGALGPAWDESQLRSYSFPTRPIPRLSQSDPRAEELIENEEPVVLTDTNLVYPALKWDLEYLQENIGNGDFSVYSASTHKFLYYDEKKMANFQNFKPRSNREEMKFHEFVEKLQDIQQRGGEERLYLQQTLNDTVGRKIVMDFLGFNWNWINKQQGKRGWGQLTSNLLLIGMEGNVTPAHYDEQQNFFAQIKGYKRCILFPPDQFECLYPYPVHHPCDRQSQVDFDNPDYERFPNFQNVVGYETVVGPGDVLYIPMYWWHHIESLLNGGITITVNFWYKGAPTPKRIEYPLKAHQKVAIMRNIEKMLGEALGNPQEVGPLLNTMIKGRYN
Description: HIF-α CAD, residues 788–822, for FIH;[70]
Cosubstrate/cofactor stock solutions [L-ascorbic acid/LAA: 50 mM in MQ-grade water; 2-oxoglutarate/2OG: 10 mM in MQ-grade water; ammonium iron(II) sulfate hexahydrate/FAS/(NH4)2Fe(SO4)2·6H2O: 400 mM in 20 mM HCl diluted to 1 mM in MQ-grade water] were freshly prepared from commercial solids (Sigma-Aldrich) on the day the assays were performed. […] FIH,[70] […] SPE-MS inhibition assays were performed as described in the cited literature, using isolated recombinant human enzymes (His6-thioredoxin-JMJD5,[42] His6-PHD2_181–426,[70] His6-FIH,[70] His6-KDM4E,[72],[73] His6-RIOX2_26–465,[87],[88] and His6-AspH315–758[48],[80]) and synthetic peptide substrates (RPS6_128–148 for JMJD5;[42] HIF-α CODD558–574 for PHD2;[70] HIF-α CAD788–822 for FIH;[70] H3_1–15K9me3 for KDM4E;[73] RPL27A31–49 for RIOX2;[44],[71] and hFX-CP101–119 for AspH;[45],[48] see above). For JMJD5, PHD2, FIH, RIOX2, and AspH, substrate hydroxylation was monitored (+16 Da mass shift), while for the KDM4E substrate, demethylation was monitored (−14 Da mass shift) by SPE-MS.

Structure (SMILES) | 53BP1 bodies (A549 cells [1]) | micronuclei (A549 cells [1]) | effect on cell growth (in words) [2] | CC50 [3] | viability (CyQuant, in words) [4] | G1-phase cells (A549 cells [5]) | S- and G2/M-phase cells (A549 cells [5]) | Sub-G1-phase cell numbers (A549 cells [5]) | effect on cell growth (in words) ([6]; 1.0–100 μM, 72 h, MTS) | CC50 ([6]; supplementary CSV, read-out: CC50 U2OS cells) | CC50 ([6]; 72 h, MTS, read-out: half-maximum cytotoxicity concentration (CC50)) | IC50 (AspH) | IC50 (PHD2) | IC50 (KDM4E) | IC50 (RIOX2) | IC50 (FIH)
COC(=O)c1cc(C(=O)OC)c(NCc2ccccc2OC)cn1 [Compound 19i] | significantly induced | significantly induced | did not significantly affect | 10.7 µM | reduced viability | reduction | increase | increased | did not significantly affect | > 100 µM |  |  |  |  |  | 
COC(=O)c1cc(C(=O)OC)c(NCc2ccccc2C2CC2)cn1 [Compound 19j] | significantly induced | significantly induced |  | 2.1 µM | reduced viability | reduction | increase | increased |  |  | 10 µM |  |  |  |  | 
O=C(O)c1cc(C(=O)O)c(NCc2ccccc2C2CC2)cn1 [Compound 20j, 5-((2-cyclopropylbenzyl)amino)pyridine-2,4-dicarboxylic acid] |  |  |  |  |  |  |  |  |  |  |  | 8.9 ± 5 µM | > 50 µM | > 50 µM | > 50 µM | > 50 µM
